{"source": "patent EP4663640A1", "about": "(Shanghai Institute of Materia Medica, Chinese Academy of …, priority 2023, dated 2024)", "tested_on": "primary cultured mouse hepatic stellate cells (HSC)", "assay": "Inhibition of TGF-β-induced hepatic stellate cell activation (α-SMA labeling)", "type": "cell-based", "details": "1 µM compound, TGF-β 10 ng/mL, 24 hours; TGF-β alone 11.76 ± 1.47%, unstimulated 0.3 ± 0.04%; Mean ± SEM", "method": "After primary cultured mouse hepatic stellate cells (HSC) were plated on 96-well black-bottom permeable plates for 24 hours, they were pre-incubated with 1 µM compound E21 and solvent control 0.1% DMSO for 1 hour, and then TGF-β was added to a final concentration of 10 ng/mL, and continued to be cultured in a CO2 incubator for 24 hours. Then the culture medium was aspirated, the plates were washed with 37 °C PBS solution for 3 times, and 4% paraformaldehyde solution was added for 30 minutes for fixation. Then 0.15% Triton X-100 solution was added for permeabilization for 10 minutes; then 5% BSA solution was added for blocking at room temperature for 1 hour; then anti-α-SMA solution (1:300) prepared with 5% BSA solution was added and incubated at 4 °C overnight; the next day, Alexa-488 anti-rabbit fluorescent secondary antibody (1:1000) prepared with 5% BSA solution was added and incubated at room temperature for 1 hour in the dark. […] After the end, the cells were washed 3 times with PBS solution and fluorescence photography was performed. The FITC filter was used to shoot green fluorescence, and the DAPI filter was used to shoot blue fluorescence. ImageJ software was used to count the total number of cells in each field of view, and the number of α-SMA positive cells was manually counted. […]"}
{"smiles": "Cn1c(=O)n(CCCO)c(=O)c2c1nc(C1(F)CCC(C(F)(F)F)CC1)n2Cc1ccc(Cl)cc1", "note": "(stereo not shown) [Example E21, 7-(4-chlorobenzyl)-8-(1-fluoro-4-(trifluoromethyl)cyclohexyl)-1-(3-hydroxypropyl)-3-methyl-3,7-dihydro-1H-purine-2,6-dione]", "values": [{"measurement": "proportion of α-SMA-positive cells", "result": "5.20 ± 0.74", "unit": "%"}]}
